Reference: patent publication US12246009B2, “Compositions and methods for treating neurodegenerative, myodegenerative, and lysosomal storage disorders” (GEORGETOWN UNIVERSITY, priority 2018, dated 2025)

Key:
[1] = tested on: human phosphorylated tau (Ser396); experiment: Human phosphorylated tau (Ser396) ELISA in transgenic APP mice; format: in vivo, mouse; conditions: 2.5 mg/kg i.p., 21 days
[2] = tested on: pTau (181); experiment: pTau (181) ELISA in pTau transfected B35 cells; format: cell-based, rat; conditions: 24 hour transfection
[3] = tested on: pTau (191); experiment: pTau in CamP301L mice; format: in vivo, mouse; conditions: 2.5 mg/kg or 5 mg/kg
[4] = tested on: B35 cells; experiment: MTT assay, cell viability; format: cell-based, rat; conditions: 1 μM, 16 hours of treatment, compared to control
Experimental: Rat neuroblastoma B35 cells were grown in Dulbecco's Modified Eagle's Medium (DMEM) with 10% Fetal Bovine Serum (FBS) and 1% penicillin/streptomycin and incubated at 37° C. with 5% CO2. For the experiments, cells were transferred to 12-well plates (Cat. #150628, ThermoFisher, Waltham, MA) and grown to at least 70% confluence. Transient transfection was performed with 3 μg P301 L tau (Cat. #30145, Addgene) cDNA or 3 μg human α-synuclein cDNA using Fugene HD transfection reagent (Cat. #E2311, Promega, Madison WI) for 24 hours. Cells were treated with 1 mM, 100 μM, 10 μM, 1 μM, 0.1 μM, 0.01 μM, and 0.001 μM dissolved in DMSO or an equivalent 5 ul of DMSO for 5 hours. Cell culture media was collected and cells were harvested using sodium-tris, EDTA, NP-40 (STEN) buffer and centrifuged at 10,000×g for 20 minutes at 4′C and supernatant was collected. Cell viability was determined via lactate dehydrogenase assay (Cat. #88954, Thermofisher) and MTT assay (Cat. #V13154, Thermofisher). […]
To measure cell viability, cells were incubated with 500 μL of Dulbecco's Modified Eagle's Medium (DMEM) containing 50 μL of (3-[4,5-dimethylthiazol-2-yl]-2,5-diphenyl-tetrazolium bromide (MTT)) for 4 hours at 37° C. and 5% CO2. […] Absorbance was read against a blank containing 125 uL of media and MTT, and 250 uL of DMS at 570 nm.

[5] = tested on: pTau (181); experiment: pTau (181) ELISA/Xmap in Tau expressing transgenic (rTG4510) mice; format: in vivo, mouse
[6] = tested on: α-synuclein; experiment: α-synuclein ELISA in α-synuclein-transfected B35 cells; format: cell-based, rat; conditions: transfected B35 cell culture model, doses 10 uM-1 mM
Experimental: Rat neuroblastoma B35 cells were grown in Dulbecco's Modified Eagle's Medium (DMEM) with 10% Fetal Bovine Serum (FBS) and 1% penicillin/streptomycin and incubated at 37° C. with 5% CO2. For the experiments, cells were transferred to 12-well plates (Cat. #150628, ThermoFisher, Waltham, MA) and grown to at least 70% confluence. Transient transfection was performed with 3 μg P301 L tau (Cat. #30145, Addgene) cDNA or 3 μg human α-synuclein cDNA using Fugene HD transfection reagent (Cat. #E2311, Promega, Madison WI) for 24 hours. Cells were treated with 1 mM, 100 μM, 10 μM, 1 μM, 0.1 μM, 0.01 μM, and 0.001 μM dissolved in DMSO or an equivalent 5 ul of DMSO for 5 hours. Cell culture media was collected and cells were harvested using sodium-tris, EDTA, NP-40 (STEN) buffer and centrifuged at 10,000×g for 20 minutes at 4′C and supernatant was collected. Cell viability was determined via lactate dehydrogenase assay (Cat. #88954, Thermofisher) and MTT assay (Cat. #V13154, Thermofisher). Protein was extracted by removing culture medium and adding 0.2 ml 1× STEN buffer (50 mM. Tris (pH 7.6), 150 mM NaCl, 2 mM EDTA, 0.2% NP-40, 0.2% BSA, 20 mM. PMSF and protease cocktail inhibitor) to cell layer and incubated on ice for 10 minutes. The bottom of the well was scraped and allowed to incubate on ice for an additional 10 minutes. Cell lysates were collected, stored at −80° C., and used for additional analyses.
To perform transient transfection of α-synuclein into the rat neuroblastoma B35 cells FuGene® HD Transfection Reagent (Promega Corporation, Madison, WI) was used. Cells were grown in 12-well dishes. […]
Human α-synuclein and p-tau ELISA were performed using 50 μl (1 μg/4 μl) of cell lysates detected with 50 μl primary antibody (3 h) and 100 μl anti-rabbit secondary antibody (30 min) at RT. α-Synuclein levels were measured using human specific ELISA (Invitrogen Inc., Carlsbad, CA) according to manufacturer's protocols. Tau was measured using specific tau at serine 396 according to manufacturer's protocol. […]

[7] = tested on: A53T mice; experiment: Open field test in A53T mice; format: in vivo, mouse; conditions: 60-minute trial
[8] = tested on: phosphorylated Tau (AT8); experiment: Phosphorylated Tau (AT8) immunoblot in rTG4510 mice; format: in vivo, mouse; conditions: all three doses (1.25, 2.5, 5 mg/kg) i.p., 7 days
[9] = tested on: amyloid-beta (6E10); experiment: Amyloid-beta (6E10) immunoblot in transgenic APP mice; format: in vivo, mouse; conditions: 1.25 and 2.5 mg/kg i.p., 21 consecutive days
[10] = target: T1, Src (Mus musculus, UniProt P05480); experiment: Activated Src immunoblot in rTG4510 mice; format: in vivo; conditions: rTG4510 mice, 1.25, 2.5 or 5 mg/kg i.p., 7 days
T1 construct: Brains from treated mice compared with DMSO treated mice were homogenized in STEN lysis buffer; from tissue; host or cells: brain of rTg4510 mice
T1 sequence (P05480 whole entry): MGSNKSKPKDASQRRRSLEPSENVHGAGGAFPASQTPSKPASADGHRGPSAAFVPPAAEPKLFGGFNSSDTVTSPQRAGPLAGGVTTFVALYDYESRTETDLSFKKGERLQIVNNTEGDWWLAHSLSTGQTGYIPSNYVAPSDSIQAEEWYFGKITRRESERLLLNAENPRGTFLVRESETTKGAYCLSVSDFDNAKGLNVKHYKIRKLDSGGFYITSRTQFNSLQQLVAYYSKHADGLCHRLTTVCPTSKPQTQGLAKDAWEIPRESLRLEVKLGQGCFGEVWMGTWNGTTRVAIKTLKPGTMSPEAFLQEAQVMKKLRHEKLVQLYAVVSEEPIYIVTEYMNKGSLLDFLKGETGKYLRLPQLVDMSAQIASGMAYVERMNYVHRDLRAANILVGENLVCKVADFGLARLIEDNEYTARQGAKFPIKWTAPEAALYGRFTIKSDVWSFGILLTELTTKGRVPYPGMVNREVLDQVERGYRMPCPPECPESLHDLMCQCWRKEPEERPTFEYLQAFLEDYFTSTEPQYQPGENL

`Cc1cccc(-c2cc3nccc(Nc4ccccc4)c3s2)c1` [BK40143, N-Phenyl-2-(m-tolyl)thieno[3,2-b]pyridin-7-amine] was tested, and the “reduction of human phosphorylated tau (Ser396)” value [1] was “over 80%”, the “pTau (181) levels” value [2] was “reduces pTau (181) levels” and the “pTau (191) level” value [3] was “reduced”. The “MTT, neuroprotective effect” value [4] was “increase”, the “pTau (181) level, ELISA” value ([5]; Tau expressing transgenic mice, seven days of treatment) was “reduces pTau (181)” and the “phosphorylated Tau (AT181), ELISA” value ([5]; rTG4510 mice, 2.5 mg/kg i.p., 7 consecutive days, 2.5 mg/kg) was “significantly reduced phosphorylated Tau”. The level of alpha-synuclein [6] was “appear to reduce the level of alpha-synuclein”, the “total distance travelled, open field” value [7] was “did not show any difference” and the “total time spent moving, open field” value [7] was “did not show any difference”. For the same compound, the “velocity of movements, open field” value [7] was “significantly increased”, the “reduction of phosphorylated Tau (AT8), immunoblot” value [8] was 41-49% and the “aggregating extracellular amyloid-beta (6E10), immunoblot” value [9] was “significantly reduced amyloid-beta plaques”. The “activated Src, immunoblot” value [10] was “did not engage” and the “activated Src, immunoblot” value ([10]; listed as BK-40143) was “does not engage”.
